Test: xn = mol fraction of the nth substance listed
Conditions: 100 kPa

COCCOCCO + CCCC[n+]1ccn(C)c1.O=S(=O)([O-])C(F)(F)F
speed of sound [m/s]
Conditions	x2 = 0	x2 = 0.1	x2 = 0.2056	x2 = 0.3064	x2 = 0.3986	x2 = 0.4904	x2 = 0.5981	x2 = 0.6945	x2 = 0.7795	x2 = 0.9015
298.15 K	1415.8	1423.6	1420.5	1415.5	1410.7	1406.3	–	1398.8	1396.8	1394.5
303.15 K	–	1408.2	1406.1	1401.6	1397.5	–	1390	1386.9	–	1383.3
308.15 K	–	1392.4	1391.5	1387.8	1384.4	1381	1378	1375.4	1374	1372
313.15 K	1366.4	1376.8	1376.9	–	1371.3	1368.4	–	–	1362.6	1360.9
318.15 K	–	–	–	–	–	1356	1354	1352.2	1351.2	1349.9
323.15 K	1333.4	1345.6	1348	1346.9	1345.5	1343.6	–	1340.7	–	1338.9

CCCC[n+]1ccn(C)c1.O=S(=O)([O-])C(F)(F)F + COCCOCCO
x1 = 1
Conditions	speed of sound [m/s]
298.15 K	1392.8
308.15 K	1370.6
313.15 K	1359.6

— a compilation of properties of binary mixtures (doi:10.1016/j.molliq.2017.04.129)
